We go through 1 compound from patent publication US20100215710A1, “Beta-2 Adrenergic Receptor Agonists and Antagonists and Modulation of Wound Healing” (The Regents of the University of California, priority 2005, published 2010).

The test system of assay [1] is human keratinocytes. The assay can be described thus: Single cell migration assay, keratinocytes (clenbuterol, OA). In kind it is cell-based. The protocol:
All single cell migration assays were performed on cells plated on glass cover-slips inserted into 35 mm plastic dishes (MatTek Corp., Ashland, Mass.) that had been coated for 1 hour at 37° C. with 60 μg/ml collagen L Cells were plated onto the collagen-coated glass cover-slips at a density of 250 cells/mm^2 for 3-6 hours at 37° C. Cells were either untreated (control), pre-treated with 10 nM okadaic acid (OA) (10 nM) for 45 minutes prior to the addition of OA (10 nM) and clenbuterol (1 μM) (OA/Clen) or treated with either OA or clenbuterol (1 μM) alone at time 0. The dishes were inserted into metal plates, maintained at 37° C., on inverted Nikon Diaphot microscopes to monitor single cell migration. Time-lapse images of the cell migratory response were digitally captured every 10 minutes over a one-hour period by Q-Imaging Retiga-EX cameras (Burnaby, BC, Canada) controlled by a custom automation written in Improvision Open Lab software (Lexington, Mass.) on a Macintosh G4. After each cell's center of mass was tracked using the Open Lab software, migration speed and distance were calculated and imported to Excel (Microsoft Corporation, Redmond, Wash.). Significance was taken as p<0.01, using Student's t test (unpaired) to compare the means of the control and β-AR agonist-treated cell populations.
Keratinocytes were plated onto collagen-coated glass cover-slips at a concentration of 250 cells/mm^2 in KGM for 3-6 hours at 37° C. The migration of each single cell was monitored over a one-hour period, and the results were analyzed in excel as described. The speed of migration ([…]) is represented graphically in FIG. 1 Panel C, control n=57, clenbuterol n=57, OA n=60, OA-clenbuterol n=44. The data are representative of three independent experiments with at least two different keratinocyte strains. * P<0.01 between β-AR agonist and controls; #P<0.01 between OA-clenbuterol and clenbuterol alone.

Assay [2] relates to human keratinocytes. The assay can be described thus: Immunofluorescent staining of actin and vinculin, keratinocytes (β-AR agonist, OA). In kind it is cell-based. As to the method:
(§1) Sterile glass cover-slips (Fisher Scientific, Pittsburgh, Pa.) were transferred into 12 well dishes and collagen-coated with 60 μg/ml collagen I in KGM for 1 hour at 37° C. Cover-slips were washed three times with KGM and 3×10^4 cells were added per well and allowed to attach overnight. Cells were untreated, treated with 1 μM β-AR agonist for 15 minutes, OA (10 nM) for 45 minutes, or pre-treated with OA (10 nM) for 30 minutes prior to the addition of 1 μM β-AR agonist for 15 minutes. All steps were performed at room temperature unless otherwise noted. Cover slips were washed twice in PBS and fixed for 10 minutes in 4% paraformaldehyde. Cover-slips were washed twice in PBS between each step. Cells were permeabilized for 5 minutes with 0.1% Triton-X-100/PBS, blocked with 5% goat serum/PBS for 20 minutes, primary monoclonal anti-vinculin antibody (Sigma, St. Louis, Mo.) or anti-phospho-ERK antibody (Cell Signaling Technology, Beverly, Mass.) were added drop-wise in 1% goat serum/PBS (1:100) and incubated for 1 hour at 37° C. A goat anti-mouse cy3 (Jackson labs, West Grove, Pa.) (1:100) antibody was then added in 1% goat serum/PBS for 1 hour at 37° C. Alexa 488-phalloidin (Molecular Probes, Eugene, Oreg.) (1:40) in PBS was added to the vinculin-stained cover-slips for 20 minutes. […]

For assay [3], the system named is phospho-ERK. The assay is described as follows: Phospho-ERK immunolocalization in keratinocytes. The assay is classed as cell-based, human. As to the method:
as §1

Setting [4] is: OA 10 nM pre-treatment prior to 1 μM β-AR agonist.

Consider `C=C1[C@@H](O)[C@@H]2O[C@]3(CC[C@H](/C=C/[C@@H](C)[C@@H]4CC(C)=C[C@@]5(O[C@H](C[C@@](C)(O)C(=O)O)CC[C@H]5O)O4)O3)CC[C@H]2O[C@@H]1[C@@H](O)C[C@H](C)[C@H]1O[C@@]2(CCCCO2)CC[C@H]1C` [OA, okadaic acid], for which the “effect on keratinocyte migration” value in assay [1] (OA 10 nM alone) was “no effect”. Also, the “effect on clenbuterol-induced reduction in speed” value in assay [1] (OA 10 nM pre-treatment, then OA plus 1 μM clenbuterol) was “completely prevents”. The “effect on cytoskeletal conformation” value in assay [2] (OA 10 nM alone, 45 minutes) is listed as “no effect”. Besides, the “effect on β2-AR-mediated change in cytoskeletal conformation” value in assay [2] (setting [4]) is on record as “prevents”. Besides, in assay [3] (OA 10 nM alone), the “effect on level of ERK phosphorylation or localization” value is given as “no effect”. The “effect on agonist-induced loss of lamellipodial phospho-ERK localization and nuclear/peri-nuclear decrease” value in assay [3] (setting [4]) is listed as “prevents”.
